Test results reported in the supplement of paper PMC10307832.

Key:
Experiment in all cases: relative viability (nuclei count vs DMSO), 5 days (fraction); higher = more cells survive
[1] = compound: O=C(Nc1c[nH]nc1-c1nc2ccc(CN3CCOCC3)cc2[nH]1)NC1CC1 [AT9283] + CC1(C)CCC(c2ccc(Cl)cc2)=C(CN2CCN(c3ccc(C(=O)NS(=O)(=O)c4ccc(N[C@H](CCN5CCOCC5)CSc5ccccc5)c(S(=O)(=O)C(F)(F)F)c4)cc3)CC2)C1 [Navitoclax] (partner 0.5 µM)
Summary of the method: (§1)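 Relative viability is defined as nuclei in treated wells over nuclei in vehicle wells. Duplicate plates were run and medians reported. Lung cancer cell lines in 1536-well plates were dosed by pin tool one day after seeding, with one drug or with a fixed anchor-drug dose plus five library-drug doses (not always all listed) in √10 steps, and nuclei were counted after 5 days.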

[2] = compound: O=C(Nc1c[nH]nc1-c1nc2ccc(CN3CCOCC3)cc2[nH]1)NC1CC1 [AT9283] + CC(=O)Nc1cccc(-n2c(=O)n(C3CC3)c(=O)c3c(Nc4ccc(I)cc4F)n(C)c(=O)c(C)c32)c1 [Trametinib] (partner 0.02 µM)
Summary of the method: as §1

[3] = compound: O=C(Nc1c[nH]nc1-c1nc2ccc(CN3CCOCC3)cc2[nH]1)NC1CC1 [AT9283] + CC(C)C[C@H](NC(=O)[C@H](Cc1ccccc1)NC(=O)c1cnccn1)B(O)O [Bortezomib] (partner 0.002 µM)
Summary of the method: as §1

[4] = compound: O=C(Nc1c[nH]nc1-c1nc2ccc(CN3CCOCC3)cc2[nH]1)NC1CC1 [AT9283] + COc1cc2c(Oc3ccc(NC(=O)C4(C(=O)Nc5ccc(F)cc5)CC4)cc3F)ccnc2cc1OCCCN1CCOCC1 [Foretinib] (partner 0.25 µM)
Summary of the method: as §1

[5] = compound: O=C(Nc1c[nH]nc1-c1nc2ccc(CN3CCOCC3)cc2[nH]1)NC1CC1 [AT9283] + Cc1cc(Nc2cc(N3CCN(C)CC3)nc(Sc3ccc(NC(=O)C4CC4)cc3)n2)n[nH]1 [Tozasertib] (partner 0.1 µM)
Summary of the method: as §1

## NCI-H441
[1]; first compound 0.003 µM
  relative viability: 0.432
[1]; first compound 0.03 µM
  relative viability: 0.433
[1]; first compound 0.09487 µM
  relative viability: 0.255
[1]; first compound 0.3 µM
  relative viability: 0.204
[2]; first compound 0.003 µM
  relative viability: 0.259
[2]; first compound 0.03 µM
  relative viability: 0.439
[2]; first compound 0.09487 µM
  relative viability: 0.423
[2]; first compound 0.3 µM
  relative viability: 0.22
[3]; first compound 0.003 µM
  relative viability: 0.406
[3]; first compound 0.03 µM
  relative viability: 0.442
[3]; first compound 0.09487 µM
  relative viability: 0.536
[3]; first compound 0.3 µM
  relative viability: 0.381
[4]; first compound 0.003 µM
  relative viability: 1.02
[4]; first compound 0.03 µM
  relative viability: 0.847
[4]; first compound 0.09487 µM
  relative viability: 0.396
[4]; first compound 0.3 µM
  relative viability: 0.301
[5]; first compound 0.003 µM
  relative viability: 0.707
[5]; first compound 0.03 µM
  relative viability: 0.715
[5]; first compound 0.09487 µM
  relative viability: 0.361
[5]; first compound 0.3 µM
  relative viability: 0.31
